In ChEMBL document CHEMBL5500355, “Quantum chemistry calculation-aided discovery of potent small-molecule mimics of glutathione peroxidases for the treatment of cisplatin-induced hearing loss” (Eur J Med Chem, 2024):
Values after ≈ are worked out from the molar mass of the structure shown. Active and inactive are the calls of the source.

Experiments:
[1] = Glutathione peroxidase like activity of compound assessed as fold increase by measuring reduction in NADPH level at 10 uM by microplate reader assay relative to SPI-1005; format: ADME
[2] = Glutathione peroxidase like activity of compound assessed as fold increase by measuring reduction in NADPH level at 100 uM by microplate reader assay relative to SPI-1005; format: ADME
Mus musculus [3] = assay: Protection against cisplatin induced oxidative stress in C57BL/6 mouse assessed as reduction in MDA level at 80 mg/kg, po administered daily for one week with simultaneous cisplatin addition on day 3 and 7 and measured after 1 week post last cisplatin treatment by ELISA; format: functional, organism-based; details: time 2.0 weeks
Mus musculus [4] = assay: Protection against cisplatin induced oxidative stress in C57BL/6 mouse assessed as reduction in TNF-alpha level at 80 mg/kg, po administered daily for one week with simultaneous cisplatin addition on day 3 and 7 and measured after 1 week post last cisplatin treatment by ELISA; format: functional, organism-based; details: time 2.0 weeks
Mus musculus [5] = species on record: Mus musculus; assay: Inhibition of cisplatin induced hair loss in neonatal C57BL/6 mouse cochlear explants assessed as reduction in cochlear hair cells loss in apex turns pretreated with compound for 2 hrs followed by cisplatin addition and measured after 24 hrs post cisplatin treatment; format: functional; details: Cochlea, time 26.0 hrs
Mus musculus [6] = species on record: Mus musculus; assay: Inhibition of cisplatin induced hair loss in neonatal C57BL/6 mouse cochlear explants assessed as reduction in cochlear hair cells loss in base turns pretreated with compound for 2 hrs followed by cisplatin addition and measured after 24 hrs post cisplatin treatment; format: functional; details: Cochlea, time 26.0 hrs
Mus musculus [7] = species on record: Mus musculus; assay: Inhibition of cisplatin induced hair loss in neonatal C57BL/6 mouse cochlear explants assessed as reduction in cochlear hair cells loss in middle turns pretreated with compound for 2 hrs followed by cisplatin addition and measured after 24 hrs post cisplatin treatment; format: functional; details: Cochlea, time 26.0 hrs
Mus musculus [8] = assay: Prevention of cisplatin induced hearing loss in C57BL/6 mouse assessed as reduction in ABR threshold increase at 80 mg/kg, po administered daily for one week with simultaneous cisplatin addition on day 3 and 7 and measured after 1 week post last cisplatin treatment; format: functional, organism-based; details: time 2.0 weeks
Mus musculus [9] = assay: Protection against cisplatin induced oxidative stress in C57BL/6 mouse assessed as reduction in IL-6 level at 80 mg/kg, po administered daily for one week with simultaneous cisplatin addition on day 3 and 7 and measured after 1 week post last cisplatin treatment by ELISA; format: functional, organism-based; details: time 2.0 weeks
Mus musculus [10] = species on record: Mus musculus; assay: Inhibition of cisplatin induced ferroptosis in neonatal C57BL/6 mouse cochlear explants assessed as reduction in mitochondrial iron accumulation at 100 uM by Mito-FerroGreen staining based confocal microscopy analysis; format: functional, organism-based; details: Cochlea
Mus musculus [11] = assay: Prevention of cisplatin induced hair loss in C57BL/6 mouse at 80 mg/kg, po administered daily for one week with simultaneous cisplatin addition on day 3 and 7 and measured after 1 week post last cisplatin treatment by myosin 7a-staining based assay; format: functional, organism-based; details: time 2.0 weeks
Mus musculus [12] = assay: Protection against cisplatin induced oxidative stress in C57BL/6 mouse assessed as increase in SOD level at 80 mg/kg, po administered daily for one week with simultaneous cisplatin addition on day 3 and 7 and measured after 1 week post last cisplatin treatment by ELISA; format: functional, organism-based; details: time 2.0 weeks
6-10B = assay: Effect on cisplatin induced antitumor activity in human 6-10B cells by CCK8 assay; format: functional, cell-based
Mus musculus [13] = species on record: Mus musculus; assay: Inhibition of cisplatin induced oxidative stress in neonatal C57BL/6 mouse cochlear explants at 100 uM by MitoSOX Red staining based confocal fluorescence microscope analysis; format: functional, organism-based; details: Cochlea
Mus musculus [14] = species on record: Mus musculus; assay: Inhibition of cisplatin induced apoptosis in neonatal C57BL/6 mouse cochlear explants assessed as reduction in cleaved caspase 3 positive hair cells in apex turn of cochlea at 100 uM by parvalbumin staining based assay; format: functional
Tu 686 = assay: Effect on cisplatin induced antitumor activity in human Tu 686 cells by CCK8 assay; format: functional, cell-based
Mus musculus [15] = species on record: Mus musculus; assay: Inhibition of cisplatin induced apoptosis in neonatal C57BL/6 mouse cochlear explants assessed as reduction in cleaved caspase 3 positive hair cells in basal turn of cochlea at 100 uM by parvalbumin staining based assay; format: functional
HeLa = assay: Effect on cisplatin induced antitumor activity in human HeLa cells by CCK8 assay; format: functional, cell-based
Mus musculus [16] = species on record: Mus musculus; assay: Inhibition of cisplatin induced apoptosis in neonatal C57BL/6 mouse cochlear explants assessed as reduction in cleaved caspase 3 positive hair cells in middle turn of cochlea at 100 uM by parvalbumin staining based assay; format: functional
[17] = Solubility of compound in water by liquid chromatography method; format: physicochemical

SMILES | fold change (FC) [1] | fold change (FC) [2] | other results
O=c1c2cccc([N+](=O)[O-])c2[se]n1-c1ccccc1 | 7.2 | 3.3 | –
O=c1c2ccccc2[se]n1-c1ccccc1 | – | – | Activity (Mus musculus [3]): Active; Activity (Mus musculus [4]): Active; inhibition (Mus musculus [5]): Active; inhibition (Mus musculus [6]): Active; inhibition (Mus musculus [7]): Active; Activity (Mus musculus [8]): Active; Activity (Mus musculus [9]): Active; inhibition (Mus musculus [10]): Active; Activity (Mus musculus [11]): Active; Activity (Mus musculus [12]): Active
COc1cccc2c(=O)n(-c3ccncc3)[se]c12 | 7.4 | 3 | –
COc1cccc(-n2[se]c3ccccc3c2=O)c1 | 0.7 | 1 | –
O=c1c2cccc(Cl)c2[se]n1-c1ccccc1 | 8.6 | 3.5 | –
O=c1c2cccc(Br)c2[se]n1-c1ccccc1 | 8.8 | 3.5 | inhibition (Mus musculus [5]): Active; inhibition (Mus musculus [6]): Active; inhibition (Mus musculus [7]): Active
O=c1c2cccc(F)c2[se]n1-c1ccccc1 | 4.5 | 2.5 | –
COc1ccc(-n2[se]c3ccccc3c2=O)cc1 | 1.3 | 1.1 | –
O=c1c2cccc(Br)c2[se]n1-c1cccnc1 | 9.8 | 3.5 | inhibition (Mus musculus [5]): Active; inhibition (Mus musculus [6]): Active; inhibition (Mus musculus [7]): Active
Cc1cccc2c(=O)n(-c3ccccc3)[se]c12 | 4.6 | 2.5 | –
O=c1c2cc(Br)ccc2[se]n1-c1ccccc1 | 0.5 | 1.1 | –
COc1cccc2c(=O)n(-c3cccnc3)[se]c12 | 7.7 | 3.5 | Activity (Mus musculus [3]): Active; Activity (Mus musculus [4]): Active; inhibition (Mus musculus [5]): Active; Activity (6-10B): inactive; inhibition (Mus musculus [6]): Active; inhibition (Mus musculus [7]): Active; inhibition (Mus musculus [13]): Active; inhibition (Mus musculus [14]): Active; Activity (Tu 686): inactive; Activity (Mus musculus [8]): Active; inhibition (Mus musculus [15]): Active; Activity (HeLa): inactive; inhibition (Mus musculus [16]): Active; Activity (Mus musculus [9]): Active; inhibition (Mus musculus [10]): Active; Activity (Mus musculus [11]): Active; solubility [17]: 1800 µg/mL (≈ 5900 µM); Activity (Mus musculus [12]): Active
COc1cccc2c(=O)n(-c3ccccc3)[se]c12 | 7.4 | 4.2 | inhibition (Mus musculus [5]): Active; inhibition (Mus musculus [6]): Active; inhibition (Mus musculus [7]): Active; solubility [17]: 2.5 µg/mL (≈ 8.22 µM)
O=c1c2cccc(Br)c2[se]n1-c1ccccn1 | 9.1 | 4.7 | –
COc1ccccc1-n1[se]c2ccccc2c1=O | 0.9 | 1.1 | –
O=c1c2cccc(Br)c2[se]n1-c1ccncc1 | 7.7 | 3.4 | –
COc1ccc2c(=O)n(-c3ccccc3)[se]c2c1 | 0.2 | 0.5 | –
COc1ccc2[se]n(-c3ccccc3)c(=O)c2c1 | 0.5 | 0.8 | –
O=c1c2ccc(Br)cc2[se]n1-c1ccccc1 | 0.7 | 0.6 | –
COc1cccc2c(=O)n(-c3ccccn3)[se]c12 | 6.9 | 3.8 | –
COc1cccc2[se]n(-c3ccccc3)c(=O)c12 | 1.8 | 1.2 | –
